Measured values: US7608589B2, “Peptidyl diacylglycerides” (priority 2005, dated 2009)

Tested on: immunoglobulin titers (IgG and IgM) specific for M. tuberculosis
Design: species or system rabbits
Conditions: rabbit, in vivo, sc

FNNFTVSFWLRVPKVSASHLE [FNN-21, reference compound]
immunoglobulin titer, average absorbance, Day 1: 0.14 AU 405 nm | immunoglobulin titer, average absorbance, Day 3: 0.15 AU 405 nm | immunoglobulin titer, average absorbance, Day 5: 0.13 AU 405 nm | immunoglobulin titer, average absorbance, Day 7: 0.16 AU 405 nm | immunoglobulin titer, average absorbance, Day 10: 0.25 AU 405 nm | immunoglobulin titer, average absorbance, Day 14: 0.35 AU 405 nm
